For 15 compounds, IC50 results are on record in US20240207292A1, “BORONIC ACID COMPOUNDS, COMPOSITIONS AND METHODS” (Trustees of Tufts College, priority 2021, published 2024).

Format in all cases: biochemical
The target in experiment [1] is recombinant human prolyl oligopeptidase (PREP) (Homo sapiens (Human), UniProt P48147). Nature of the experiment: In vitro assay prolyl oligopeptidase IC50 (Example 21). As to the method: (§1) The purpose of this assay is to determine the IC50 of various inhibitors against recombinant human dipeptidyl peptidase IV (DPPIV), fibroblast activation protein (FAP) or prolyl oligopeptidase (PREP).
Sequence of recombinant human prolyl oligopeptidase (PREP) (P48147 whole entry): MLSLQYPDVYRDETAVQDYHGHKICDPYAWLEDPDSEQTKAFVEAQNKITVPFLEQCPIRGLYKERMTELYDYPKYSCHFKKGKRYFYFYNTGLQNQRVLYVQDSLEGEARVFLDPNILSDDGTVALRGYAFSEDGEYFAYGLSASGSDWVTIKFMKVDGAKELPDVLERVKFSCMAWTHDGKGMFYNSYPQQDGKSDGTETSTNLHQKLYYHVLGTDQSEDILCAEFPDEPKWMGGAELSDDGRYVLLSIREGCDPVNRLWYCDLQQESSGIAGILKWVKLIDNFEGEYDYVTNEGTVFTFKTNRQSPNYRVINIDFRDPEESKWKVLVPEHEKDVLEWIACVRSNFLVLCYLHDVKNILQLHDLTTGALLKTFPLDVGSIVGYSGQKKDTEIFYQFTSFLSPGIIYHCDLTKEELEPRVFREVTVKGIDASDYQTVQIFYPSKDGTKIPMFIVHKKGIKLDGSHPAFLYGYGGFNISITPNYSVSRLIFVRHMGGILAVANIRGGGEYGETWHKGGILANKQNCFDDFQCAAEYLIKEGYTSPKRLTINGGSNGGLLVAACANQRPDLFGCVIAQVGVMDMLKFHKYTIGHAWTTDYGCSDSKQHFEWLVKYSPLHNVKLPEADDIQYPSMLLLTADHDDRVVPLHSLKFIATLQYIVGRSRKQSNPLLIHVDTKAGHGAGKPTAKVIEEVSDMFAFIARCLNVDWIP
(§2) The assays are conducted in the following steps: • 1 Dissolve the compound in DMSO to a final concentration of 100 mM. From this, prepare a 1 mM stock at pH 7.5 in 50 mM Tris, 140 mM NaCl Buffer (FAP)/pH 7.5 in 25 mM Tris, 250 mM NaCl Buffer/[…]. • 2. Serial dilute (1:10) the 1 mM compound stocks prepared previously into the appropriate assay buffer (FAP: 50 mM Tris, 140 mM NaCl, pH 7.5/PREP: 25 mM Tris, 0.25 M NaCl, pH 7.5/DPPIV: 25 mM Tris, pH 8.0) to one row of a 96-well plate. • 3. […] Dilute the enzymes into their appropriate assay buffers. The final enzyme concentrations should be 0.1, 1.2, and 0.6 nM for DPPIV, FAP and PREP respectively. Add 180 μL to each well needed in columns 2-10. Column 1(A,B,C) should be prepared with 200 μl of appropriate assay buffer as control. Column 1(D,E,F,G,H) should be prepared with 20 μl of appropriate assay buffer and 180 ul enzyme as no inhibitor control. • 5. Add 20 μL of the compound of interest from the dilution plate prepared in step 2 to columns 2-10 of the assay plate where appropriate. Each sample should be tested in triplicate. Allow this to incubate for 10 minutes at room temperature, shaking the plate for the first two minutes. • 6. Add 10 μL of 20× substrate prepared in step 3 to each well and allow this to incubate for 15 minutes at room temperature, shaking the plate for the first two minutes. • 7. Read the fluorescence at λex: 380, λem: 460. (DPcore=[dAla|dSer|Gly]-[boroPro|Pro-nitrile], XXaa=alpha-amino acid)

Experiment [2] deals with recombinant human fibroblast activation protein (FAP) (Homo sapiens (Human), UniProt Q12884). Nature of the experiment: In vitro assay fibroblast activation protein IC50 (Example 21). As to the method: as §1, §2
Sequence of recombinant human fibroblast activation protein (FAP) (Q12884 whole entry): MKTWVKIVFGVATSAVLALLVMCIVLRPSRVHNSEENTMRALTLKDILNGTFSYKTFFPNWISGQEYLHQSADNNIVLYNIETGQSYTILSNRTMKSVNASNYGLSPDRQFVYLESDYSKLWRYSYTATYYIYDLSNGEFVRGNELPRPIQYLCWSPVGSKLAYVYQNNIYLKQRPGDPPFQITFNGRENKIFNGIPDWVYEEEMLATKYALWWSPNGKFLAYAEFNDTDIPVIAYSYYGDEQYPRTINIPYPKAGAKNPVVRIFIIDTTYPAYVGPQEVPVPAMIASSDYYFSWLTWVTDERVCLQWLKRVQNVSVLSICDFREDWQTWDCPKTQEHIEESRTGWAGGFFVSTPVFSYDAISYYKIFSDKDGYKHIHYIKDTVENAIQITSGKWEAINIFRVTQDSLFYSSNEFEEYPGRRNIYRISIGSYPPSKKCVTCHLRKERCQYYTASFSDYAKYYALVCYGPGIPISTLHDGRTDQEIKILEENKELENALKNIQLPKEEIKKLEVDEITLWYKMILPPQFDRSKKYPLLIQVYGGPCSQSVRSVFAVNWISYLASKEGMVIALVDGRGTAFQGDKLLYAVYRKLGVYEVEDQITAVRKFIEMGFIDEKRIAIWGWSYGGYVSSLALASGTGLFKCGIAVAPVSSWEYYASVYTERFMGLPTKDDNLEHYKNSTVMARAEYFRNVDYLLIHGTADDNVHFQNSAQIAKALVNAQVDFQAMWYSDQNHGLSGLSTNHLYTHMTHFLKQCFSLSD
Experiment [3] addresses recombinant human dipeptidyl peptidase IV (DPPIV) (Homo sapiens (Human), UniProt P27487). Nature of the experiment: In vitro assay dipeptidyl peptidase IV IC50 (Example 21). The method, then: as §1, §2

Like-named read-outs stand apart in the source and are kept apart here. Square brackets hold non-standard residues; d marks the D form. Peptide text beside a SMILES is read from it. * marks the point of attachment. X5 = O=C(O)CN1CCN(CC(=O)O)CCN([C@H](CCC(=O)*)C(=O)O)CCN(CC(=O)O)CC1; boroPro = OB(O)[C@@H]1CCCN1*

Sequence of recombinant human dipeptidyl peptidase IV (DPPIV) (P27487 whole entry): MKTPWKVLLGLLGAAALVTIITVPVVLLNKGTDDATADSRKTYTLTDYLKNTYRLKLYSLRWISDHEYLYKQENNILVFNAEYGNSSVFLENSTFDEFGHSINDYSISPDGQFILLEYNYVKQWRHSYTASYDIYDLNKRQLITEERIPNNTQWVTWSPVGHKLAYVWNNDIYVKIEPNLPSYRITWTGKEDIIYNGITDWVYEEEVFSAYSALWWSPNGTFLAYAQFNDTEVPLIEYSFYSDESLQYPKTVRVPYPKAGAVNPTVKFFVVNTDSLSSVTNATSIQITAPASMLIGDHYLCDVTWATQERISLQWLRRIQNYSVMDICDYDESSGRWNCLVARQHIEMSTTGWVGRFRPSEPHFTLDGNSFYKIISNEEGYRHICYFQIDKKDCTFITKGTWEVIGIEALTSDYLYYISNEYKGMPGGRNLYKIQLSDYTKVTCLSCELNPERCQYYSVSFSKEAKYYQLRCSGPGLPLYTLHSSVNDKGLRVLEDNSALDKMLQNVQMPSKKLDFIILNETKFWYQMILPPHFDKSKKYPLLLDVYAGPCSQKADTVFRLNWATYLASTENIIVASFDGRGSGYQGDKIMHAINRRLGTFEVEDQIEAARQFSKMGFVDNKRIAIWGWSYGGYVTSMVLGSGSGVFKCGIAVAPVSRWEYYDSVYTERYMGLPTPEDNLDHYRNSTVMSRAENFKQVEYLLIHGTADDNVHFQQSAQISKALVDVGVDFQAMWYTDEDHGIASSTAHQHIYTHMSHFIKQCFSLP

The term IC50 denotes the point on the concentration scale where inhibition reaches its midpoint. With `C[C@@H](NC(=O)CN1CCN2CC(=O)O[C]3(CN4CCN5CC(=O)O[C](C1)(C5)[Gd]3[O]C(=O)C4)C2)C(=O)N1CCC[C@H]1B(O)O` (some centres unmarked) [4535GD], the IC50 in experiment [1] (Z-Gly-Pro-AMC, 0.6 nM enzyme) was greater than 10000 nM; in experiment [2] (Z-Gly-Pro-AMC, 1.2 nM enzyme), 760 nM.
With `C[C@@H](NC(=O)c1ccc(NNC(=O)CN2CCN3CCN4CCN(CC2)CC(=O)[O][Gd]([O]C(=O)C3)[O]C(=O)C4)nc1)C(=O)N1CCC[C@H]1B(O)O` [4536GD], the results for the IC50 in experiment [1], in experiment [2] and in experiment [3] were greater than 100000 nM, 450 nM and greater than 100000 nM, respectively.
On to `C[C@@H](NC(=O)c1ccc(NNC(=O)CCCCC[N+]2=C(/C=C/C3=C(Oc4ccc(S(=O)(=O)O)cc4)C(=C/C=C4/N(CCCCS(=O)(=O)O)c5ccc(S(=O)(=O)O)cc5C4(C)C)/CCC3)C(C)(C)c3cc(S(=O)(=O)O)ccc32)cc1)C(=O)N1CCC[C@H]1B(O)O` [4613 C], for which the IC50 was 610 nM in experiment [1] and 1.7 nM in experiment [2].
The corresponding values for `C[C@@H](NC(=O)c1ccc(NNC(=O)CNC(=O)CN2CCN3CCN4CCN(CC2)CC(=O)[O][Ga]([O]C(=O)C3)[O]C(=O)C4)cc1)C(=O)N1CCC[C@H]1B(O)O` [6487GA] are 1200 nM and 20.8 nM.
For `C[C@@H](NC(=O)c1ccc(NNC(=O)CNC(=O)CN2CCN3CCN4CCN(CC2)CC(=O)[O][Lu]([O]C(=O)C3)[O]C(=O)C4)cc1)C(=O)N1CCC[C@H]1B(O)O` [6487LU] the same measures were 34 nM and 8.8 nM.
The corresponding values for `C[C@@H](NC(=O)c1ccc(CNC(=O)CN2CCN3CCN4CCN(CC2)CC(=O)[O][Ga]([O]C(=O)C3)[O]C(=O)C4)nc1)C(=O)N1CCC[C@H]1B(O)O` [6556GA] are 248 nM and 32 nM.
With `C[C@@H](NC(=O)c1ccc(CNC(=O)CN2CCN3CCN4CCN(CC2)CC(=O)[O][Lu]([O]C(=O)C3)[O]C(=O)C4)nc1)C(=O)N1CCC[C@H]1B(O)O` [6556LU], the half-maximal inhibitory concentration (IC50) is 895 nM in experiment [1] and 2.9 nM in experiment [2].
For `C[C@@H](NC(=O)c1ccc(NC(=O)CN2CCN3CCN4CCN(CC2)CC(=O)[O][Ga]([O]C(=O)C3)[O]C(=O)C4)cc1)C(=O)N1CCC[C@H]1B(O)O` [6572GA] the same measures were 234 nM and 25 nM.
For `C[C@@H](NC(=O)c1ccc(NC(=O)CN2CCN3CCN4CCN(CC2)CC(=O)[O][Lu]([O]C(=O)C3)[O]C(=O)C4)cc1)C(=O)N1CCC[C@H]1B(O)O` [6572LU], the IC50 in experiment [1] came out at 891 nM; in experiment [2], 9.5 nM.
For `C[C@@H](NC(=O)c1ccc(NNC(=O)CCCCCNC(=O)CN2CCN3CCN4CCN(CC2)CC(=O)[O][Lu]([O]C(=O)C3)[O]C(=O)C4)nc1)C(=O)N1CCC[C@H]1B(O)O` [6609LU], the IC50 was found to be 60 nM in experiment [1] and 1 nM in experiment [2].
For the compound `CC(C)[C@H](NC(=O)CNC(=O)CNC(=O)CNC(=O)CC[C@H](C(=O)O)N1CCN(CC(=O)O)CCN(CC(=O)O)CCN(CC(=O)O)CC1)C(=O)N[C@H](C)C(=O)N1CCC[C@H]1B(O)O` [6808D] (X5-GGGV[dA]-boroPro), the IC50 in experiment [1] (Z-Gly-Pro-AMC, 0.6 nM enzyme) is 11000 nM; in experiment [2] (Z-Gly-Pro-AMC, 1.2 nM enzyme) it was 11.5 nM.
Take `CC(C)[C@H](NC(=O)CCCCCCNC(=O)CN1CCN2CCN3CCN(CC1)CC(=O)[O][Ga]([O]C(=O)C2)[O]C(=O)C3)C(=O)N[C@H](C)C(=O)N1CCC[C@H]1B(O)O` [6949GA]: in experiment [2] (Z-Gly-Pro-AMC, 1.2 nM enzyme), the IC50 came out at 181 nM.
Consider `C[C@@H](NC(=O)c1ccc(NNC(=O)CCCCCNC(=O)CN2CCN3CCN4CCN(CC2)CC(=O)[O][Lu]([CH2]C(=O)C3)[O]C(=O)C4)nc1)C(=O)N1CCC[C@H]1B(O)O` [6958LU], for which the results for the IC50 in experiment [1] and in experiment [2] were 155 nM and 1.1 nM, respectively.
Regarding `CC(C)[C@H](NC(=O)c1ccc(CNC(=O)CN2CCN3CCN4CCN(CC2)CC(=O)[O][Ga]([O]C(=O)C3)[O]C(=O)C4)cc1)C(=O)N[C@H](C)C(=O)N1CCC[C@H]1B(O)O` [6967 GA], the IC50 in experiment [2] amounted to 65 nM.
As for `C[C@@H](NC(=O)CN1CCN(CC(=O)O)CCN(CC(=O)O)CCN(CC(=O)O)CC1)C(=O)N1CCC[C@H]1B(O)O` [compound 4535], the IC50 in experiment [1] (Z-Gly-Pro-AMC, 0.6 nM enzyme) was greater than 10000 nM; in experiment [2] (Z-Gly-Pro-AMC, 1.2 nM enzyme), 290 nM.
